One molecule from patent US4011390A, “Semi-synthetic aminocyclitol aminoglycoside antibiotics and methods for the preparation thereof” (Schering-Plough Corporation, priority 1974, dated 1977) can be followed below.

Where two headings read alike, the source gives them in different places.

Usually LD50 stands for the dose at which mortality reaches 50%. The low end stands for a more toxic substance, the high end for a less toxic substance.

Series [1] deals with Escherichia coli. Description: Protection Tests in Mice. It is filed as in vivo. The text has this: (§1) In vivo Activity of the Mutamicin 1 and Sisomicin
(§2) Protection Tests in Mice

In series [2] the test system is Pseudomonas aeruginosa. Description: Protection Tests in Mice. It is filed as in vivo.
Text: as §1, §2

Series [3] relates to Staphylococcus. Description: Protection Tests in Mice. It counts as in vivo. As to conditions: Staphylococcus Gray, read-out: PD50.
Text: as §1, §2

Series [4] is described as follows: Acute Toxicity. To be noted: mouse, in vivo.

In the case of `CN[C@@H]1[C@@H](O)[C@@H](O[C@@H]2[C@@H](O)[C@H](O[C@H]3OC(CN)=CC[C@H]3N)[C@@H](N)C[C@H]2N)OC[C@]1(C)O` [Sisomicin, O-2,6-Diamino-2,3,4,6-tetradeoxy-α-D-glycero-hex-4-eno-pryanosyl(1→4)-O-[3-deoxy-4-C-methyl-3-(methylamino)-B-L-arabinopyranosyl(1→6)] -2-deoxy-D-streptamine, reference compound], the ED50 in series [1] (Escherichia coli 6922, read-out: PD50) is 2 mg/kg; in series [1] (Escherichia coli Sc., read-out: PD50), 1.7 mg/kg; in series [2] (Pseudomonas aeruginosa 2552, read-out: PD50), 2.8 mg/kg; in series [2] (Pseudomonas aeruginosa 2557, read-out: PD50) it was 2.7 mg/kg; in series [2] (sc, Pseudomonas aeruginosa Sc., read-out: PD50), 1.1 mg/kg; in series [3], 1.8 mg/kg. The median lethal dose (LD50) was found to be 190 mg/kg in series [4] (ip) and 34 mg/kg in series [4] (iv).
